From US10285989B2, “Pyrimidinone amide compounds as PDE2 inhibitors” (Merck Sharp & Dohme Corp., priority 2015, dated 2019)
Where two headings read alike, the source gives them in different places.

Assays:
[1] = molecular target: Rhesus PDE2A3 (Macaca mulatta, UniProt B3VTJ2); test: PDE2 fluorescence polarization (IMAP FP) inhibition assay, rhesus PDE2A3; assay type: biochemical, rhesus macaque
[2] = molecular target: P-glycoprotein (P-gp, rat Mdr1a) (Rattus norvegicus, UniProt Q6PSM0); test: P-gp transport, experimental BA/AB ratio, rat LLC-Mdr1a; assay type: in vitro ADME; details: LLC-PK1; rat LLC-Mdrla; 1 μM substrate concentration
Chain of P-glycoprotein (P-gp, rat Mdr1a) (Q6PSM0 1-1272): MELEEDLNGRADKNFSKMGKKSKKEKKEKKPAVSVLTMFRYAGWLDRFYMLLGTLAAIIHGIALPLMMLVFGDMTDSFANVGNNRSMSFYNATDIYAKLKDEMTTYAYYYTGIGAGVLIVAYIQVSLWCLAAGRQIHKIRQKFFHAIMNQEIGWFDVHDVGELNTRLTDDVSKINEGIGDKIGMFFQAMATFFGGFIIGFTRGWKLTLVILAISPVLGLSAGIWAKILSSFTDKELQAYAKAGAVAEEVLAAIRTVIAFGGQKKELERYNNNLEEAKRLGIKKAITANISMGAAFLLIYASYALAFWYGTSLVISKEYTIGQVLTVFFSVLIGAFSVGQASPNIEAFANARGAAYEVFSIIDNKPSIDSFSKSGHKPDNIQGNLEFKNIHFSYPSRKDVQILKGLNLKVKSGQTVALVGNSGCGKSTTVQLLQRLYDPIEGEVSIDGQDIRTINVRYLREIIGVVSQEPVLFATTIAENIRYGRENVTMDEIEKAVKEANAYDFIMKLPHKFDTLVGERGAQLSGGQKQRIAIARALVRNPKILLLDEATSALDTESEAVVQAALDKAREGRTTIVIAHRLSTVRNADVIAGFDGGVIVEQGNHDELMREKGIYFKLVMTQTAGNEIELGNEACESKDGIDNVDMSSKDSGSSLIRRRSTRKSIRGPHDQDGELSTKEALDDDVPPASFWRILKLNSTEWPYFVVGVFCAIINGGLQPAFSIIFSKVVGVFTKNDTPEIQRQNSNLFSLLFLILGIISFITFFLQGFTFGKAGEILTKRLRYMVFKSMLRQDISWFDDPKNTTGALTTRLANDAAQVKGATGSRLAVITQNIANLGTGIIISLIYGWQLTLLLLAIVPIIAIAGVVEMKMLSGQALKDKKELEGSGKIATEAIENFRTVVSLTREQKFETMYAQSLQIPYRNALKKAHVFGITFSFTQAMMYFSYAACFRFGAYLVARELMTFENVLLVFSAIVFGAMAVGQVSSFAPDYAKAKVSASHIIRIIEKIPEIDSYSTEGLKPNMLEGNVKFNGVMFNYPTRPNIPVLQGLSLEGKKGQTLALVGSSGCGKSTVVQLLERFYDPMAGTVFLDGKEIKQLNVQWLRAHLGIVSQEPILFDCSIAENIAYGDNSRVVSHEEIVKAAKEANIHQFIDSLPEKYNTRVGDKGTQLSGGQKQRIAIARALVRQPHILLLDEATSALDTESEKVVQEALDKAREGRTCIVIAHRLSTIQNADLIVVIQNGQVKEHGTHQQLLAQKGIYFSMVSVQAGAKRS
Excerpt: (§1) See Doan et al. “Passive permeability and P-glycoprotein-mediated efflux differentiate central nervous system (CNS) and non-CNS marketed drugs”, J. Pharm. Exper. […] Desirable human BA/AB ratio is less than 2.0. […] See, for example, Desai, et al. Integration of in Silico and in Vitro Tools for Scaffold Optimization during Drug Discovery: Predicting P-glycoprotein Efflux” Mol. Pharmac.

[3] = molecular target: P-glycoprotein (P-gp) (Homo sapiens (Human), UniProt P08183); test: P-gp transport, experimental BA/AB ratio, human; assay type: in vitro ADME; details: LLC-PK1, 1 μM substrate concentration
Chain of P-glycoprotein (P-gp) (P08183 whole entry): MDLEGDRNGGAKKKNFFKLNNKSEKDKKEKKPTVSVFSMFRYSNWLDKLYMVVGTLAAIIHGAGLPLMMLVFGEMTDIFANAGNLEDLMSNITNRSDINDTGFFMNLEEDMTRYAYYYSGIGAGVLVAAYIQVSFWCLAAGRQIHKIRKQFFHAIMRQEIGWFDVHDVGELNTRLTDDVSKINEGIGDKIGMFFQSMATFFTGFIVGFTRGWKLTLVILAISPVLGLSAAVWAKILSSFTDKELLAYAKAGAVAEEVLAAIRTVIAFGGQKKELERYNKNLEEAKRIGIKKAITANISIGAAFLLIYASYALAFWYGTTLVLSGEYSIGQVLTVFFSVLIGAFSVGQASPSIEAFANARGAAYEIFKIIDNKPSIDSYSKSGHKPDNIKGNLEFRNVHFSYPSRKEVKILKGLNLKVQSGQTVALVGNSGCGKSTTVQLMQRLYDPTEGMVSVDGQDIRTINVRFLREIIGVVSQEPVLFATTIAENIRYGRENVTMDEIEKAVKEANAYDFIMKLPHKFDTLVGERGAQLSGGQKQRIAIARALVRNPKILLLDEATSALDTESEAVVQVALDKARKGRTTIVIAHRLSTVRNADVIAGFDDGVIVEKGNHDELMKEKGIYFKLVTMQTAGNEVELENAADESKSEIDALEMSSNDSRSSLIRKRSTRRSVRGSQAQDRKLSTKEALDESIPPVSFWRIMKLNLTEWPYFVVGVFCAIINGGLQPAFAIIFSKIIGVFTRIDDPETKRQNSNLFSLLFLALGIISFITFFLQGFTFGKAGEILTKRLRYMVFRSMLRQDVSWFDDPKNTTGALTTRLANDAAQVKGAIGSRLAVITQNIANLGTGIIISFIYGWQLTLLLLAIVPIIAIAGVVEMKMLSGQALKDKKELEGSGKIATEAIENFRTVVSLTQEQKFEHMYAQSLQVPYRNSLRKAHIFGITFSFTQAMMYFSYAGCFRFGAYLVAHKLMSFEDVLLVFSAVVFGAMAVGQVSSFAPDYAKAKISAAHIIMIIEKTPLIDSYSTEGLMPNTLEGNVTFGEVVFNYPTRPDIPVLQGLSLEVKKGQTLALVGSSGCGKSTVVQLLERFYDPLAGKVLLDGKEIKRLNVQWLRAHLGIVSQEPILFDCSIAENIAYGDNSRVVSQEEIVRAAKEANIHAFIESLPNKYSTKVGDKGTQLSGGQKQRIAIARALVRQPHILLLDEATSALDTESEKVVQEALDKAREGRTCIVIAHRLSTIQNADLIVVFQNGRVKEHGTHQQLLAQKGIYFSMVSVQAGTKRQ
Excerpt: as §1

[4] = molecular target: human PDE2A1 (Homo sapiens (Human), UniProt O00408); test: PDE2 IMAP FP inhibition assay, human PDE2A1 (selectivity panel format); assay type: biochemical
Chain of human PDE2A1 (O00408 other isoform, or with tags, fused parts or gaps): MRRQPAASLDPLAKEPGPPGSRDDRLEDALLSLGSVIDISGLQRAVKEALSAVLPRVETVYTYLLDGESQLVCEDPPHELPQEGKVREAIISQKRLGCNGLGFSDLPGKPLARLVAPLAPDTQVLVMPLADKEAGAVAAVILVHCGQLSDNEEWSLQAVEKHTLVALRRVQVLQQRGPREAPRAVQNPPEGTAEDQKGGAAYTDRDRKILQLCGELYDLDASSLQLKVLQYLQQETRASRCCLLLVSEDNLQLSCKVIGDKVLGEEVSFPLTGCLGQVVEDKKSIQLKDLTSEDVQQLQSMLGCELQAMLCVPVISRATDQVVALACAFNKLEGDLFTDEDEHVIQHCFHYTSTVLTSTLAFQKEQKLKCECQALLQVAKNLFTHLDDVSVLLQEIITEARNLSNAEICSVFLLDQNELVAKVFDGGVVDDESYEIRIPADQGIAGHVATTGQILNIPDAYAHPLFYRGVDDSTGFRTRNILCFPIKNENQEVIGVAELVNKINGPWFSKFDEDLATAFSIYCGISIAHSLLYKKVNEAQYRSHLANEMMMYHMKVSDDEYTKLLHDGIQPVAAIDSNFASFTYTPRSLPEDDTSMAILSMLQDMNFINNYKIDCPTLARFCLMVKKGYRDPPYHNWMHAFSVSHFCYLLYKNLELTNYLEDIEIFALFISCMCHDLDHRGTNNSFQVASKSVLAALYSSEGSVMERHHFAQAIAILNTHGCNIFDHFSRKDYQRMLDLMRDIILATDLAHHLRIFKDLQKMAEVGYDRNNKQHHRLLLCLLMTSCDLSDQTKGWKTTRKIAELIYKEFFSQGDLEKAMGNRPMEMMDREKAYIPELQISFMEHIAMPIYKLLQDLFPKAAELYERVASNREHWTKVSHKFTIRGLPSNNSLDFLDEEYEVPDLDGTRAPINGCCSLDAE
In short: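 IMAP fluorescence polarization assay; substrate 50 nM FAM-cAMP with 1000 nM cGMP, enzyme at ~20% conversion, in 10 mM Tris pH 7.2, 10 mM MgCl2, 1 mM DTT, 0.01% Tween-20. 60 min room temperature, stopped with IMAP binding reagent, 1 h, then parallel/perpendicular fluorescence read.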

[5] = Lab B, read-out: Rhesus PDE2 Ki (nM) - Lab B
[6] = Lab B, read-out: Human PDE2 Ki (nM) - Lab B
[7] = Lab A, read-out: Rhesus PDE2 Ki (nM) - Lab A
[8] = Lab A, read-out: Human PDE2 Ki (nM) - Lab A

Chain of Rhesus PDE2A3 (B3VTJ2 1-941): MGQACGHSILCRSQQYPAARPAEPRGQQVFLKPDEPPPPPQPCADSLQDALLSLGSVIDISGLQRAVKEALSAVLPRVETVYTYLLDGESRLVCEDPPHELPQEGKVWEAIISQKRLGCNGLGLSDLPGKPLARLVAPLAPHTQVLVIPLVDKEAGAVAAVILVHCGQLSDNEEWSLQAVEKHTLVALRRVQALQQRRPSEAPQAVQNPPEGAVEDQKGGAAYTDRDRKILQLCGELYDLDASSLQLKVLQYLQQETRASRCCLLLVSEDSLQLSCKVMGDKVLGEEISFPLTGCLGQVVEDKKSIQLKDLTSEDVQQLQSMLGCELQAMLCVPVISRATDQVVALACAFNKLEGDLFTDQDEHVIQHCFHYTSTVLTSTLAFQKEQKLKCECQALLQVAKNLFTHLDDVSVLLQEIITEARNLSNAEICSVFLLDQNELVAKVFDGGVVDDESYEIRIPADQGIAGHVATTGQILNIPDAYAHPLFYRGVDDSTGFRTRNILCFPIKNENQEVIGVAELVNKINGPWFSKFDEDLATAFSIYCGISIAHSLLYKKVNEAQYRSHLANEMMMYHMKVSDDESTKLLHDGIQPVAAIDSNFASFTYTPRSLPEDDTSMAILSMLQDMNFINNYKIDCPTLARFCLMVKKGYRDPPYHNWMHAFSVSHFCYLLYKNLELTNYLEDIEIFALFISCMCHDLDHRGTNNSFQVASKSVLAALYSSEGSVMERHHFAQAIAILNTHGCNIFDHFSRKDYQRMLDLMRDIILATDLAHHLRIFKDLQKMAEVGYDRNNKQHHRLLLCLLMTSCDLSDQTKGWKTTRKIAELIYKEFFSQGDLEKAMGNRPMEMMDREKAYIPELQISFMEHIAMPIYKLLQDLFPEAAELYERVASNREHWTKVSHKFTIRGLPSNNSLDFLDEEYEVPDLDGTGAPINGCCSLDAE

Structure (SMILES) | Ki [1, 5] [nM] | efflux ratio at 1 μM [2] | efflux ratio at 1 μM [3] | Ki [4, 6] [nM] | Ki [1, 7] [nM] | Ki [4, 8] [nM] | Ki ([1]; Rhesus PDE2 Ki (nM) - Lab B, Lab B) [nM]
CC(C)[C@@H](NC(=O)c1cc(=O)[nH]c(N(C)C)n1)c1ccc(C(F)(F)F)cc1 [Example 47, 2-(dimethylamino)-N-{(1R)-2-methyl-1-[4-(trifluoromethyl)phenyl]propyl}-6-oxo-1,6-dihydropyrimidine-4-carboxamide] | 0.43 | 2.1 | 0.6 | 0.44 | – | – | –
C[C@@H](NC(=O)c1cc(=O)[nH]c(N(C)C)n1)c1ccc(SC(F)(F)F)cc1 [Example 143, 2-(dimethylamino)-6-oxo-N-[(1R)-1-{4-[(trifluoromethyl)sulfanyl]phenyl}ethyl]-1,6-dihydropyrimidine-4-carboxamide] | 0.61 | 2.5 | 0.5 | 0.82 | 0.57 | 0.32 | –
CN(C)c1nc(C(=O)NC(C)(C)c2ccc(C(F)(F)F)c(F)c2)cc(=O)[nH]1 [Example 93, 2-(dimethylamino)-N-{1-[3-fluoro-4-(trifluoromethyl)phenyl]-1-methylethyl}-6-oxo-1,6-dihydropyrimidine-4-carboxamide] | – | 1.9 | 0.3 | – | 4 | 3.8 | –
CCC(C)(NC(=O)c1cc(=O)[nH]c(N(C)C)n1)c1ccc(C(F)(F)F)cc1F (single isomer, unassigned) [Example 130, (R)- or (S)-2-(dimethylamino)-N-{1-[2-fluoro-4-(trifluoromethyl)phenyl]-1-methylpropyl}-6-oxo-1,6-dihydro-pyrimidine-4-carboxamide] | 1.2 | 1.3 | 0.6 | 0.89 | – | – | –
CC(C)[C@@H](NC(=O)c1cc(=O)[nH]c(N(C)C)n1)c1ccc(SC(F)(F)F)c(F)c1 [Example 150, 2-(dimethylamino)-N-[(1R)-1-{3-fluoro-4-[(trifluoromethyl)sulfanyl]phenyl}-2-methylpropyl]-6-oxo-1,6-dihydropyrimidine-4-carboxamide] | 0.29 | 4.4 | 1.1 | 0.29 | 0.24 | – | –
C[C@@H](NC(=O)c1cc(=O)[nH]c(N2Cc3ccncc3C2)n1)c1ccc(C(F)(F)F)cc1 [Example 160, 2-(1,3-dihydro-2H-pyrrolo[3,4-c]pyridin-2-yl)-6-oxo-N-{(1R)-1-[4-(trifluoromethyl)phenyl]ethyl}-1,6-dihydropyrimidine-4-carboxamide] | – | 28.8 | 17.1 | – | 1.6 | 1 | –
C[C@@H](NC(=O)c1cc(=O)[nH]c(N(C)C)n1)c1ccc(C(F)(F)F)cc1 [Example 133, 2-(dimethylamino)-6-oxo-N-{(1R)-1-[4-(trifluoromethyl)phenyl]ethyl}-1,6-dihydropyrimidine-4-carboxamide] | 2.8 | 1.8 | 0.5 | 2.3 | 2.5 | 2 | –
CN(C)c1nc(C(=O)N[C@@H](c2ccc(C(C)(C)C)cc2)C2(C)CC2)cc(=O)[nH]1 [Example 44, N-[(R)-(4-tert-butylphenyl)(1-methylcyclopropyl)methyl]-2-(dimethylamino)-6-oxo-1,6-dihydropyrimidine-4-carboxamide] | 1.6 | 2.1 | 0.7 | 1.5 | – | – | –
CC(C)[C@@H](NC(=O)c1cc(=O)[nH]c(N2CCCC2)n1)c1ccc(C(F)(F)F)cc1 [Example 95, N-{(1R)-2-methyl-1-[4-(trifluoromethyl)phenyl]propyl}-6-oxo-2-pyrrolidin-1-yl-1,6-dihydropyrimidine-4-carboxamide] | – | 4.5 | 1 | – | 0.39 | 0.18 | –
CN(C)c1nc(C(=O)N[C@@H](c2ccc(C3CC3)cc2)C(C)(C)C)cc(=O)[nH]1 [Example 35, N-[(1R)-1-(4-cyclopropylphenyl)-2,2-dimethylpropyl]-2-(dimelhylamino)-6-oxo-1,6-dihydropyrimidine-4-carboxamide] | 0.12 | 3.6 | 0.5 | 0.11 | – | – | –
C[C@@H](NC(=O)c1cc(=O)[nH]c(N2CCCC2)n1)c1ccc(C(F)(F)F)cc1 [Example 6, (R)-6-oxo-2-(pyrrolidin-1-yl)-N-(1-(4-(trifluoromethyl)phenyl)ethyl)-1,6-dihydropyrimidine-4-carboxamide] | – | 3.2 | 0.5 | – | 2.5 | 1.7 | –
CC[C@@H](NC(=O)c1cc(=O)[nH]c(N(C)C)n1)c1ccc(C(F)(F)F)c(F)c1 [Example 106, 2-(dimethylamino)-N-{(1R)-1-[3-fluoro-4-(trifluoromethyl)phenyl]propyl}-6-oxo-1,6-dihydropyrimidine-4-carboxamide] | 1.4 | 3.5 | 0.5 | 1.3 | 0.81 | – | –
CN(C)c1nc(C(=O)N[C@@H](c2ccc(OC(F)F)c(F)c2)C2(C)CC2)cc(=O)[nH]1 [Example 55, N-[(R)-[4-(difluoromethoxy)-3-fluorophenyl](1-methylcyclopropyl)methyl]-2-(dimethylamino)-6-oxo-1,6-dihydropyrimidine-4-carboxamide] | 1.4 | 3.4 | 0.6 | 0.98 | – | – | –
C[C@@H](NC(=O)c1cc(=O)[nH]c(N2CCCC2)n1)c1ccc(SC(F)(F)F)cc1 [Example 146, 6-oxo-2-pyrrolidin-1-yl-N-[(1R)-1-{4-[(trifluoromethyl)sulfanyl]phenyl}ethyl]-1,6-dihydro-pyrimidine-4-carboxamide] | – | 5.4 | 0.9 | – | 0.43 | 0.36 | –
CN(C)c1nc(C(=O)N[C@@H](c2ccc(S(F)(F)(F)(F)F)cc2)C2(C)CC2)cc(=O)[nH]1 [Example 57, 2-(dimethylamino)-N-{(R)-(1-methylcyclopropyl)[4-(pentafluoro-λ^6-sulfanyl)phenyl]methyl}-6-oxo-1,6-dihydropyrimidine-4-carboxamide] | 0.28 | 0.7 | 1.7 | 0.31 | – | – | –
CC(C)C(C)(NC(=O)c1cc(=O)[nH]c(N(C)C)n1)c1ccc(S(F)(F)(F)(F)F)cc1 (single isomer, unassigned) [Example 173, (S)- or (R)-2-(dimethylamino)-N-{1,2-dimethyl-1-[4-(pentafluoro-λ^6-sulfanyl)phenyl]propyl}-6-oxo-1,6-dihydropyrimidine-4-carboxamide] | – | 3.6 | 0.8 | 6.5 | – | – | 6.6
CN(C)c1nc(C(=O)N[C@@H](c2ccc(C(F)(F)F)cc2)C2CC2)cc(=O)[nH]1 [Example 108, N-{(1R)-cyclopropyl[4-(trifluoromethyl)phenyl]methyl}-2-(dimethylamino)-6-oxo-1,6-dihydropyrimidine-4-carboxamide] | 1.3 | 1.9 | 0.4 | 1.8 | 0.66 | – | –
CN(C)c1nc(C(=O)NC(c2ccc(SC(F)(F)F)c(F)c2)C2(C)CC2)cc(=O)[nH]1 (single isomer, unassigned) [Example 120, (R)- or (S)-2-(dimethylamino)-N-[{3-fluoro-4-[(trifluoromethyl)sulfanyl]phenyl}(1-methylcyclopropyl)methyl]-6-oxo-1,6-dihydropyrimidine-4-carboxamide] | 1.8 | 47.2 | 27.3 | 1.9 | – | – | –
C[C@@H](NC(=O)c1cc(=O)[nH]c(N2CC[C@H](F)C2)n1)c1ccc(C(F)(F)F)cc1 [Example 12, 2-((S)-3-fluoropyrrolidin-1-yl)-6-oxo-N—((R)-1-(4-(trifluoromethyl)phenyl)ethyl)-1,6-dihydropyrimidine-4-carboxamide] | – | 9 | 0.7 | – | 4.5 | 1.8 | –
CC(C)[C@@H](NC(=O)c1cc(=O)[nH]c(N)n1)c1ccc(SC(F)(F)F)cc1 [Example 154, 2-amino-N-[(1R)-2-methyl-1-{4-[(trifluoromethyl)sulfanyl]phenyl}propyl]-6-oxo-1,6-dihydropyrimidine-4-carboxamide] | – | 24.7 | 10.4 | – | 18 | 9.9 | –
O=C(N[C@@H](c1ccc(OC(F)(F)F)cc1)C1CC1)c1cc(=O)[nH]c(N2CCCC2)n1 [Example 114, N-{(R)-cyclopropyl[4-(trifluoromethoxy)phenyl]methyl}-6-oxo-2-pyrrolidin-1-yl-1,6-dihydropyrimidine-4-carboxamide] | 1.5 | 4 | 0.5 | 1.5 | 0.94 | – | –
